Assay results as given in patent publication US20110124604A1, “PHOSPHOLIPID RECEPTORS AS TARGETS FOR ENHANCING DRUG PERMEABILITY TO SELECTED TISSUES” (priority 2006, published 2011).
Entries after “also recorded” stand apart in the source; their conditions may differ. One block for each compound: values may come before it.

Assays:
[1] = system: bovine brain microvessel endothelial cell (BBMEC) monolayers; experiment: Permeability of confluent BBMEC monolayers (FDX-3000 flux); type: cell-based; conditions: for effect on BBMEC permeability in words: 0.1, 1 and 10 uM; for onset of permeability effect: earliest time point tested 15 min
[2] = system: BBMEC monolayers; experiment: Polarity studies: apical or basolateral application on BBMEC monolayers; type: cell-based, bovine
Method: (§1) The permeability effects of LPA and S1P were examined in various microvessel endothelial cell preparations. Primary bovine and porcine brain microvessel endothelial cells (BBMEC and PBMEC, respectively) were collected from the gray matter of fresh cow and pig cerebral cortices using a combination of enzymatic digestion and centrifugal separation methods previously described. The BBMECs and the PBMEC were seeded (50,000 cells/cm2) on collagen coated, fibronectin treated, 6-well Transwell polycarbonate membrane inserts (0.4 um pore/24 mm diameter). The culture media consisted of: 45% minimum essential medium eagle (MEM), 45% Ham's P 12 nutrient mix, 10 mM HEPES, 13 mM sodium bicarbonate, 50 ug/ml gentamicin, 10% equine serum, 2.5 ug/ml amphotericin B, and 100 ug/ml heparin. […]
For studies examining the functional polarity of LPA and S1P […] of the phospholipids were applied to either the apical or basolateral side of confluent brain microvessel endothelial cell monolayers. There was 30 min AB pretreatment followed by treatment with either LPA and S1P on either apical and/or basolateral side and the flux of FDX-3000 across the monolayer was measured. Permeability across the cell monolayers was determined by adding 10 uM fluorescein-labeled dextran (FDX-3000; MW 3000) to the donor compartment. […] Samples were analyzed as described above.

[3] = system: blood-brain barrier; type: in vivo, mouse; conditions: 15 minutes, mice
Method: FIG. 12. Adult female Balb/c mice were anesthetized with ketamine xylazine cocktail, and given a bolus i.v. (tail vein) injection of the near infrared fluorescent dye, rhodamine 800 (3.2 μmol/kg) either alone or in the presence of LPA (1.0 mg/kg) or the combination of LPA and S1P (0.1 mg/kg). Mice were sacrificed at 15 minutes following injection of rhodamine 800 and following perfusion with formalin through cardiac puncture, the brain was removed and sliced (3 mm) coronally. The appearance of rhodamine 800 was visualized using an Odyssey near infrared imaging system. […] The rhodamine 800 is confined primarily to the cerebral spinal fluid present in the ventricles (the small bright regions observed in the various brain slices). […] This is evident by the intense bright fluorescence of the brain slices in the LPA treated mouse.

[4] = In vivo permeability study, 3H-methotrexate tissue distribution in mice; set-up: species or system mouse; conditions: female, Balb/c, mouse, brain / plasma, intravenous, 4 uCi total activity; methotrexate alone; 15 minutes after systemic administration; read-out: brain to plasma ratio of 3H-methotrexate in control mice
Method: (§2) FIG. 11. Bar graph showing 20 fold increase in ^3H-methotrexate uptake in mouse brain when LPA is present. Adult female Balb/c mice were administered radiolabeled methotrexate via bolus tail vein injection. The radiolabeled methotrexate was given either alone, or in the presence of 1.0 mg/kg LPA. Fifteen minutes after injection of radiolabeled methotrexate, the mice were sacrificed and blood and tissue (brain, lung, kidney and liver) samples removed. The brain was homogenized and the cerebral microvascular endothelial cells were separated from the rest of the brain via centrifugation in 13% dextran solution at 7500×g for 15 minutes. Samples of the brain parachyma were removed for determination of radioactivity along with other tissue homogenates. Under normal conditions less than 1% of the injected dose of radiolabeled methotrexate was delivered to the brain. However, in the presence of LPA, an approximately 20-fold enhancement of radiolabeled methotrexate delivery to the brain was observed.
(§3) Female Balb/c mice were used to assess BBB permeability in vivo. Mice received a bolus injection (ml/kg) of ^3H-methotrexate (4 uCi total activity) via the tail vein. The radiolabeled methotrexate was given in combination with either LPA (1 mg/kg) or vehicle (0.25% bovine serum albumin in phosphate buffered saline solution). Fifteen minutes after the injection of methotrexate, mice were anesthetized using intraperitoneal injection of ketamine and xylazine and a sample of blood was removed by cardiac puncture. Following the blood sample, mice were sacrificed and various tissues including, the brain, lung, liver and kidney, were removed for determination of 3H-methotrexate. Blood samples were spun for 8-10 minutes and 100 uL of plasma was collected. Tissue samples were weighed and homogenized with double the volume of tissue solubilizing agent (Scintigest™, Fisher Scientific). A 200 uL aliquot of the tissue homogenate was used to analyse the tissue samples. The samples were then mixed with Ultima Gold™ (Perkin Elmer) scintillation cocktail and analysed by liquid scintillation counter (Perkin Elmer) to determine the amount of ^3H-methotrexate present in the blood and tissue. The distribution of ^3H-methotrexate was based on the ratio of the radioactivity in the tissue versus the radioactivity in the plasma sample.

[5] = system: blood-brain barrier; experiment: as above; set-up: species or system mouse
Method: as §2, §3

[6] = system: blood-brain barrier; experiment: Rat cranial window model, clearance of FDX 10 kDa; type: in vivo; conditions: LPA 10 uM
Method: Cerebral vascular permeability was also evaluated using the rat cranial window model. For these studies male Wistar-Furth rats (n=15) were anesthetized (Inactin; thiobutabarbital 100 mg/kg ip), and a tracheotomy was performed. The rats were mechanically ventilated with room air and supplemental oxygen. A catheter was placed in the femoral artery for the measurement of systemic blood pressure and to obtain blood samples. A catheter was placed in the femoral vein for injection of intravascular tracer FDX 10 10a. […] Blood gases were also monitored and maintained within normal limits. […]
Permeability of the BBB was evaluated by calculating the clearance of FDX 10 kDa (10^−6 ml/s) from the area of parietal cortex exposed by the craniotomy, as previously described (Mayhan and Heistad, Am J. Physiol, 248: H712-H718, 1985; Mayhan, Brain Research, 927: 144-152, 2002). Briefly, the suffusate fluid was collected in glass test tubes with the aide of a fraction collector, and the concentration of FDX in the suffusate fluid during topical application of vehicle (saline) or LPA (10 μM) was determined using a spectrofluorometer. […] The clearance of 1010a FDX was calculated by multiplying the suffusate-to-plasma concentration by the suffusate flow rate (Mayhan and Heistad, Am J. Physiol, 248: H712-H718, 1985; Mayhan, Brain Research, 927: 144-152, 2002). […]

[7] = system: porcine brain microvessel endothelial cells (PBMEC); experiment: Permeability of porcine BMEC monolayers (FDX-3000 flux); type: cell-based; conditions: LPA 0.1, 1 and 10 uM
Method: as §1, with “diameter).” for “diameter). The culture media consisted of: 45% minimum essential medium eagle (MEM), 45% Ham's P 12 nutrient mix, 10 mM HEPES, 13 mM sodium bicarbonate, 50 ug/ml gentamicin, 10% equine serum, 2.5 ug/ml amphotericin B, and 100 ug/ml heparin.”
Permeability studies were performed on confluent BBMEC and PBMEC, monolayers at […]. […] Permeability across the cell monolayers was determined by adding 10 uM fluorescein-labeled dextran (FDX-3000; MW 3000) to the donor (apical) compartment. […] The concentration of FDX-3000 in the donor and receiver samples was measured spectrofluorometrically using a Shimadzu RFU5000 spectrofluorometer (Shimadzu Scientific Instruments, Columbia, Md., USA) with Ex (7 v) at 488 nm and Em (2 k.) at 510 nm. Permeability was expressed as the percent transfer of the fluorescent marker across the monolayers. The percent transfer was determined by dividing the cumulative concentration in the receiver compartment by the original concentration in the donor compartment at time zero. Permeability coefficients were calculated from the following formula: […]

[8] = LPA 1 mg/kg i.v., 15 minutes, mice

Compound: CCO [Ethanol, ethanol, reference compound]
increase in BBMEC monolayer permeability ([1]; ethanol 50 mM): 3 fold

Compound: CCCCCCCCCCCCC/C=C/[C@@H](O)[C@@H](N)COP(=O)(O)O [S1P, sphingosine 1-phosphate]
decrease in BBMEC monolayer permeability, applied apically or basolaterally ([2]; S1P 10 uM): approximately 2 fold | effect on BBMEC permeability in words ([1]; FDX-3000): equally as robust decrease in permeability; also recorded: decreased the permeability of FDX-3000; also recorded: concentration-dependent decreases | onset of permeability effect ([1]; BBMEC): ≤ 15 min | effect on the BBMEC permeability ([1]; S1P 0.1 uM): no significant effect | decrease in permeability of BBMEC ([1]; S1P 1 and 10 uM): 2 fold | effect of S1P on the permeability increase induced by LPA ([1]; S1P (10 uM) co-administered with LPA, BBMEC): completely overcome; also recorded: totally prevented; also recorded: abolished | effect of S1P on the permeability effect of ethanol ([1]; ethanol 50 mM and S1P, BBMEC): abolished; also recorded: decrease in permeability | effect of S1P on the permeability effect of horse serum ([1]; horse serum 10% and S1P, BBMEC): abolished; also recorded: decreased the permeability effect | duration of permeability effect ([1]; in the presence of S1P): 90 min | effect of S1P on the LPA-induced increase in rhodamine 800 brain distribution ([3]; LPA 1.0 mg/kg and S1P 0.1 mg/kg i.v.): prevents the increases

Kp at 15 min [4]: ~0.02 | share of the injected dose delivered to the brain ([5]; radiolabeled methotrexate alone, normal conditions, mice): less than 1%
Compound: CN(Cc1cnc2nc(N)nc(N)c2n1)c1ccc(C(=O)N[C@@H](CCC(=O)O)C(=O)O)cc1 [^3H-methotrexate, methotrexate, reference compound]

Compound: lysophosphatidic acid [LPA]
increase in permeability following apical or basolateral application ([2]; LPA 10 uM, BBMEC): 2 fold | onset of effect on cerebral vascular permeability [6]: rapid in onset (within minutes) | reversal of permeability after LPA was stopped [6]: returned to baseline levels extremely rapidly; also recorded: equally rapid in returning to baseline permeability | effect on porcine BMEC permeability in words [7]: concentration-dependent increase | effect on BBMEC permeability in words ([1]; FDX-3000): concentration-dependent increase | onset of permeability effect ([1]; BBMEC): ≤ 15 min | increase in the permeability of BBMEC monolayers ([1]; LPA 10 uM, FDX-3000): 2 fold | increase in monolayer permeability ([1]; LPA 0.1 and 1 uM, FDX-3000, BBMEC): ~1.5 fold | rhodamine 800 delivery to the brain with LPA ([3]; LPA 1.0 mg/kg i.v. with rhodamine 800 3.2 μmol/kg): substantially greater rhodamine 800 was delivered to the brain | effect on 3H-methotrexate accumulation in liver or kidney [5, 8]: no significant increases; also recorded: no effect | increase in 3H-methotrexate accumulation in the lung [5, 8]: approximately 3 fold | brain to plasma ratio of 3H-methotrexate with LPA ([5]; LPA 1 mg/kg, 15 minutes after administration, mice): approximately 20% | onset of action in the mouse ([5]; LPA, mouse): ≤ 15 min
